In patent US20260234150A1, “COMPOUND FOR INHIBITING NLRP3, PREPARATION METHOD, AND USE” (DOVETREE MEDICINES UNUS, INC., priority 2023, published 2026):

Columns and labels:
[1] = Liver microsome metabolic stability, human; format: in vitro ADME; details: human liver microsomes, 45 min incubation
Method: Purpose: This experiment investigates the metabolic stability of the compound in liver microsomes of different species such as humans, mice and rats, and the residual content of the test compound after incubation with liver microsomes of different species such as humans, mice and rats.
Preparation of 500 μM solution of target compound and positive control: 5 μL of each 10 mM stock solution was taken, added to 95 μL acetonitrile, and mixed for 30 s;
Preparation of 6 mM NADPH solution: 100 mM Stock aliquot liquid was diluted with Mg-Mg —K-Buffer.
2.1.1 Liver microsome solution: 18.75 μL of 20 mg/mL HLM, RLM, MLM, DLM, MOLM (final concentration: 0.5 mg/ml) were taken and placed them in each well of a 96-well plate;
2.1.2 1.5 μL of 500 μM solution of each compound was added respectively;
2.1.3 479.8 μL of phosphate buffer was taken, then added to each compound well, and mixed at 1000 rpm in an oscillating mixer for 10 s.
30 μL of the above samples were taken and aliquoted to a new 96-well plates respectively (including NADPH group, n=2, and no NADPH group at 0 and 45 min, n=1), marked as 0, 5, 15, 30 and 45 min; […]
The slope was calculated based on the LN value of the compound concentration percentage and time as the coordinate axis, and the residual content of the compound after incubation with liver microsomes was calculated based on the slope and formula. […]

[2] = target: T1, CYP2C19 (Homo sapiens, UniProt P33261); assay: CYP450 enzyme inhibition in human liver microsomes, CYP2C19; format: in vitro ADME; details: substrate Mephenytoin, read-out: Inhibitory activity IC50 (μM) CYP2C19
T1 construct: (CYP2C19 uses 0.2 mg/mL liver microsome); tissue BioIVT IHG; host or cells: human liver microsomes
Method: This experiment incubates the compound, liver microsomes and different CYP subtype enzyme substrates in a 37° C. water bath to measure the amount of substrate metabolites produced and evaluate the inhibitory effect of the compound of the present disclosure on CYP enzymes based on the IC50 value.
i. The compound was diluted to 0, 0.02 mM, 0.06 mM, 0.2 mM, 0.6 mM, 2 mM and 6 mM concentrations with DMSO (Aladdin, catalog number: D103273-500 ml).
ii. The enzyme substrate solutions of each CYP subtype were prepared by phosphate buffer (sigma: V900050-500G).
iii. Sample incubation. […] After centrifugation at 4000 rpm and 4° C. for 40 min, the supernatant was diluted with pure water according to the response of the substrate metabolites and then detected by UPLC-MS/MS (Sciex, Q-Trap 4500). […]
The inhibitory effect of the compound on each P450 enzyme in human liver microsomes was calculated as the percentage of reduced metabolite formation compared with the non-inhibitory control (i.e., blank DMSO). The IC50 value for each P450 enzyme in human liver microsomes was calculated using the logarithm of the remaining activity and the inhibitor concentration using Graphpad Prism software. […]

[3] = test system: IL-1β secretion of THP-1 cells; assay: Effect of NLRP3 inhibitor on IL-1β secretion of THP-1 cells (AlphaLISA); format: cell-based; details: Homo sapiens; PMA, LPS and Nigericin stimulated THP-1 cells, IL-1β in supernatant; read-out: IC50 (nM), THP-1 cells to detect NLRP3 inhibitors
Method: This experiment used the PerkinElmer AlphaLISA_human_IL1β kit (AL220 C/F). The detection buffer was RPMI-1640+10FBS. AlphaLISA Immunoassay Buffer, AlphaLISA Anti-IL1β Acceptor beads, Streptavidin (SA)-coated Donor beads, and Biotinylated Antibody Anti-IL1β were all included in the kit.
The density of THP1 cells was adjusted to 4×10^5 cells/mL, PMA (final concentration 50 nM) was added, inoculated into 96-well flat-bottom plates at 200 μL/well, and stimulated overnight at 37° C., 5% CO2 (try to <16h). The next day, the supernatant was discarded, and the flat washed twice with DPBS ([…]/time). Then LPS solution (final concentration of 100 ng/ml) was added at 198 μL/well, incubated at 37° C., 5% CO2 for 3h. 1 μL of the corresponding concentration of compounds was added to each well according to the experimental MAP, incubated at 37° C., 5% CO2 for 1 h. 1 μL Nigericin (final concentration of […]) was added to each well, incubated overnight at 5% CO2 (>18h). On the third day, 5 μL of supernatant was taken, diluted 20 times, and the content of IL-Iβ in the supernatant was detected by Human Interleukin 1 beta (IL1β) Kit. Envision was used to read the AlphaLISA test value of Ex=680/[…]. GraphPad Prism 9.5.0 was used to analyze the data, and the IC50 value of the compound for IL-Iβ antagonism was fitted by four-parameter Logistic.

T1 sequence (P33261 whole entry): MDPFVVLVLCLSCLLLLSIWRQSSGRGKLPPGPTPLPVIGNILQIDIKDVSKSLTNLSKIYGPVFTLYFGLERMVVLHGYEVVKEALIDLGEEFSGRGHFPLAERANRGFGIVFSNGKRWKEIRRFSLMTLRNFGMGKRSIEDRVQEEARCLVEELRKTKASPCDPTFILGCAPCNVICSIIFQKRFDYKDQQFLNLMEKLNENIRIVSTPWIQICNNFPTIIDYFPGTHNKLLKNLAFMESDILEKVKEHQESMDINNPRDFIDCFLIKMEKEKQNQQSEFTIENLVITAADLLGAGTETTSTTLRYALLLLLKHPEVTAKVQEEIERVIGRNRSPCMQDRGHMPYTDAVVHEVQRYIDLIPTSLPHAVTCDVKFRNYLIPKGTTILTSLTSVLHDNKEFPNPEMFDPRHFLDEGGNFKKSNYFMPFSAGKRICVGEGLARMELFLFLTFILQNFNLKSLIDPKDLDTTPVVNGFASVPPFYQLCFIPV

LMS (h)(% rem, 45 min) [1]: 93.24 % rem
IC50 [2]: > 30 µM
IC50 [3]: < 50 nM
SMILES: CC(=O)N1CCOC[C@H]1CNc1nc2nc(-c3c(C)cc(C(F)(F)F)cc3O)ccc2o1 [Compound 111]
